This note sets out measurements from patent US6452014B1, “Telomerase inhibitors and methods of their use” (Geron Corporation, priority 2000, dated 2002).

By IC50 is commonly meant the point on the concentration scale where inhibition reaches its midpoint. A high value points to weaker potency in that assay.

Each structure is given as a SMILES string. “And” between values parts separate entries of the source, which are not always exact repeats. Equal entries are not always repeated.

T1 sequence (O14746 whole entry): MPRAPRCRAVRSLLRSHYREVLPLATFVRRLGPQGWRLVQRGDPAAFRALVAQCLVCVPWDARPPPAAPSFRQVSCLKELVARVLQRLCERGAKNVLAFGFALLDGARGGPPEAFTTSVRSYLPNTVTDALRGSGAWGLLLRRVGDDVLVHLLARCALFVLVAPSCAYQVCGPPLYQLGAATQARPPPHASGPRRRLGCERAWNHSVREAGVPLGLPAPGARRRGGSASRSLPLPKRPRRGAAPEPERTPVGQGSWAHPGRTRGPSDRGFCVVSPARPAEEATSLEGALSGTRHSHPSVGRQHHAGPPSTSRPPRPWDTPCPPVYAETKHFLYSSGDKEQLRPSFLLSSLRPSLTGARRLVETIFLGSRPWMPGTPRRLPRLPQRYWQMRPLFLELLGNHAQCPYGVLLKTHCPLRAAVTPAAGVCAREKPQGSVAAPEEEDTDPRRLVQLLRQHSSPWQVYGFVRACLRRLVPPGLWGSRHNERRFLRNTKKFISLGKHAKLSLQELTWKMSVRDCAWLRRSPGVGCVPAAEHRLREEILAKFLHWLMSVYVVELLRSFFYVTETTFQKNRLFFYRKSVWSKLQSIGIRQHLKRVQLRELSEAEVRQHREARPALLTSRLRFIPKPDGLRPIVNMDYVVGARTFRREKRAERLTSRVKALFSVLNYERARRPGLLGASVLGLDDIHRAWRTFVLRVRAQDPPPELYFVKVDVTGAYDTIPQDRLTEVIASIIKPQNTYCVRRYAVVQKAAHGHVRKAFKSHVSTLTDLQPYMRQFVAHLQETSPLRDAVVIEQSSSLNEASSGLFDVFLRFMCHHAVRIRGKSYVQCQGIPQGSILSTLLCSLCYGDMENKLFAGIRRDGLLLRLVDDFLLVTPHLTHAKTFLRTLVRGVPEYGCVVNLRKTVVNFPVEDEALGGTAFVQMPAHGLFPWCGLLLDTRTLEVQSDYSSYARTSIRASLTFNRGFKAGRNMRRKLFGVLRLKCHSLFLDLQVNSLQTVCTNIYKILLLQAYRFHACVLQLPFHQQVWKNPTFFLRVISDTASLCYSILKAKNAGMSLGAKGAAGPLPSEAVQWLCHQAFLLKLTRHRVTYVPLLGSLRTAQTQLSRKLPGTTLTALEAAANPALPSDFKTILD

The experiment concerns the target T1, partially purified telomerase from a nuclear extract of HEK293 cells (Homo sapiens, UniProt O14746).
T1 construct: partially purified telomerase from a nuclear extract of HEK293 cells; endogenous in cells; host or cells: HEK293 cells (nuclear extract, partially purified)
Put plainly: In vitro telomerase inhibition, membrane hybridization assay (method of U.S. Pat. No. 5,760,062). Conditions: replicate determinations listed in one cell. The format is biochemical. The method, then: Alternatively, telomerase inhibitory activity of the compounds was measured in accordance with a known method (U.S. Pat. No. 5,760,062). That is, a dimethyl sulfoxide (DMSO) solution of each agent was mixed with partially purified telomerase from a nuclear extract of HEK293 cells and incubated in the presence of an oligodeoxynucleotide to be used as the substrate and deoxynucleotide triphosphate. The obtained reacted product (DNA having a telomere sequence) was adsorbed on a membrane, and hybridization was carried out using a labeled oligonucleotide probe having a sequence complementary to the telomere sequence. The inhibition ratio was calculated based on the ratio of the signal of label on the membrane in the presence of the agent to the signal of label in the absence of the agent (control). Also, concentration of each agent which inhibits 50% of the enzyme activity based on the control was used as IC50.
Regarding `CCOC(=O)Cn1c(-c2ccc(/C=C3\SC(=O)NC3=O)cc2)nc2cc(Cl)c(Cl)cc21` [Example 20, Ethyl [5,6-Dichloro-2-[4-[(2,4-dioxothiazolidin-5-ylidene)methyl]phenyl]-benzimidazol-1-yl]acetate], the IC50 is 2.28 µM and 3.26 µM.

For the compound `O=C1NC(=O)/C(=C/c2ccc3cc(-c4nc5cc(Cl)c(Cl)cc5[nH]4)ccc3c2)S1` [Example 40, 5,6-Dichloro-2-[6-[(2,4-dioxothiazolidin-5-ylidene)methyl]naphth-2-yl]benzimidazole], the IC50 is 0.29 µM and 0.55 µM and 0.51 µM.

For the compound `Cc1cc2nc(-c3ccc(/C=C4\SC(=O)NC4=O)cc3)[nH]c2cc1C` [Example 3, 5,6-Dimethyl-2-[4-[(2,4-dioxothiazolidin-5-ylidene)methyl]phenyl]benzimidazole], the IC50 was 5.44 µM and 6.2 µM.

Consider `O=C1NC(=O)/C(=C/c2ccc(-c3nc4c(C(F)(F)F)cc(Cl)cc4[nH]3)cc2)S1` [Example 5, 6-Chloro-2-[4-[(2,4-dioxothiazolidin-5-ylidene)methyl]phenyl]-4-(trifluoromethyl)benzimidazole], for which the IC50 is 4.98 µM and 2.95 µM.

`Cn1c(/C=C2\SC(=O)NC2=O)ccc1-c1nc2cc(Cl)c(Cl)cc2[nH]1` [Example 33, 2-[2-[(2,4-Dioxothiazolidin-5-ylidene)methyl]-1-methylpyrrol-5-yl]-5,6-dichlorobenzimidazole]: the IC50 is 3.18 µM and 2.47 µM.

For `O=C1NC(=O)/C(=C/c2ccc(-c3nc4cc([N+](=O)[O-])ccc4[nH]3)cc2)S1` [Example 4, 2-[4-[(2,4-Dioxothiazolidin-5-ylidene)methyl]phenyl]-5-nitrobenzimidazole], the IC50 is 4.3 µM and 3.69 µM.

With `O=C1NC(=O)/C(=C/c2ccc(-c3nc4ccccc4n3Cc3ccc(Cl)c(Cl)c3)cc2)S1` [Example 14, 1-(3,4-Dichlorobenzyl)-2-[4-[(2,4-dioxothiazolidin-5ylidene)methyl]-phenyl]benzimidazole], the IC50 is 1.61 µM and 1.92 µM.

`O=C1NC(=O)/C(=C/c2ccc3[nH]c(-c4nc5cc(Cl)c(Cl)cc5[nH]4)cc3c2)S1` [Example 45, 5,6-Dichloro-2-[5-[(2,4-dioxothiazolidin-5-ylidene)methyl]indol-2-yl]benzimidazole] registered an IC50 of 0.61 µM.

Take `O=C1NC(=O)/C(=C/c2ccc(-c3nc4cc(Cl)c(Cl)cc4[nH]3)s2)S1` [Example 32, 5,6-Dichloro-2-[2-[(2,4-dioxothiazolidin-5-ylidene)methyl]thiophen-5-5-yl]benzimidazole]: the concentration for half-maximal inhibition (IC50) was 1.96 µM and 1.91 µM.

As to `O=C1NC(=O)/C(=C/c2cc(Br)c(-c3nc4cc(Cl)c(Cl)cc4[nH]3)s2)S1` [Example 29, 5,6-Dichloro-2-[3-bromo-5-[(2,4-dioxothiazolidin-5-ylidene)methyl]thiophen-2-yl]benzimidazole], the IC50 is 1.89 µM and 2.26 µM.

Consider `O=C1NC(=O)/C(=C/c2ccc(-c3nc4cc(Cl)c(Cl)cc4[nH]3)cc2)S1` [Example 1, 5,6-Dichloro-2-[4-[(2,4-dioxothiazolidin-5-ylidene)methyl]phenyl]benzimidazole], for which the IC50 is 1.86 µM and 1.1 µM and 1.22 µM and 0.85 µM and 1.14 µM.

`O=C1NC(=O)/C(=C/c2ccc(-c3nc4cc(C(=O)c5ccccc5)ccc4[nH]3)cc2)S1` [Example 6, 5-Benzoyl-2-[4-[(2,4-dioxothiazolidin-5-ylidene)methyl]phenyl]benzimidazole]: the IC50 was 3.04 µM and 3.35 µM.

For `O=C1NC(=O)/C(=C/c2ccc(-c3nc4cc(Cl)c(Cl)cc4[nH]3)c3ccccc23)S1` [Example 39, 5,6-Dichloro-2-[4-[(2,4-dioxothiazolidin-5-ylidene)methyl]naphth-1-yl]benzimidazole], the IC50 is 0.44 µM and 0.92 µM and 1.01 µM.

`O=C1NC(=O)/C(=C/c2cc3cc(-c4nc5cc(Cl)c(Cl)cc5[nH]4)ccc3[nH]2)S1` [Example 46, 5,6-Dichloro-2-[2-[(2,4-dioxothiazolidin-5-ylidene)methyl]indol-5-yl]benzimidazole] showed an IC50 of 5.4 µM.

Regarding `O=C1NC(=O)/C(=C/c2ccc(-c3nc4ccccc4[nH]3)cc2)S1` [Example 2, 2-[4-[(2,4-Dioxothiazolidin-5-ylidene)methyl]phenyl]benzimidazole], the IC50 was 1.05 µM and 1.52 µM.

For the compound `Cc1cc2nc(-c3ccc(/C=C4\SC(=O)NC4=O)cc3)n(Cc3ccc(Cl)c(Cl)c3)c2cc1C` [Example 15, 1-(3,4-Dichlorobenzyl)-5,6-dimethyl-2-[4-[(2,4-dioxothiazolidin-5-ylidene)methyl]phenyl]benzimidazole], the IC50 is 3.01 µM and 2.43 µM.

Consider `O=C1NC(=O)C(Cc2ccc(-c3nc4cc(Cl)c(Cl)cc4[nH]3)cc2)S1` (stereo not shown) [Example 28, 2-[4-[(2,4-Dioxothiazolidin-5-yl)methyl]phenyl]-5,6-dichlorobenzimidazole], for which the IC50 was 14.5 µM and 15 µM.

As to `CN(C)CCn1c(-c2ccc(/C=C3\SC(=O)NC3=O)cc2)nc2cc(Cl)c(Cl)cc21` [Example 21, 5,6-Dichloro-1-(2-dimethyaminoethyl)-2-[4-[(2,4-dioxothiazolidin-5-ylidene)methyl]phenyl]benzimidazole], the IC50 is 19.2 µM and 15.9 µM.

Turning to `O=C1NC(=O)/C(=C/c2ccc(-c3nc4cc(Cl)c(Cl)cc4[nH]3)o2)S1` [Example 30], the IC50 was 5.19 µM and 2.76 µM.
